From patent US20250042890A1, “METHIONINE ADENOSYLTRANSFERASE 2a (MAT2A) INHIBITORS AND USES THEREOF” (Insilico Medicine IP Limited, priority 2021, published 2025)

Target: MAT2A (Homo sapiens (Human), UniProt P31153)
Assay: MAT2A Biochemical Assay
Settings: Biomol Green readout O.D.620; 1 uM start, 3-fold dilution, 10 doses; read-out: MAT2A enzymatic IC50
Method: Example A: MAT2A Biochemical Assay
Compounds described herein were tested as follows:
• (1). Prepared 1×Assay buffer. • (2). Preparation of compound concentration gradient: the compounds test condition were 1 uM start, 3-fold dilution, 10 doses, singlet or duplicate. 100× concentration compounds were prepared in 384-well plate. Then used Echo 550 to transfer 250 nl to a 384-reaction plate for later use. Added 250 nl of 100% DMSO to the negative and positive control wells. • (3). Prepared 1.67× final concentration enzyme solution with 1×Assay buffer. • (4). Added 15 μl of 1.67× Enzyme solution to the compound wells and positive control wells; added 15 μl of 1 Assay buffer to the negative control wells. • (5). Centrifuged at 1000 rpm for 30 seconds and incubate for 15 minutes. • (6). Prepared 2.5× final concentration Substrate mix solution with 1×Assay buffer. • (7). Added 10 μl of 2.5× final concentration Substrate mix solution to start the reaction. • (8). Centrifuged at 1000 rpm for 30 seconds and incubate for 150 minutes. • (9). Added 50 μl Biomol Green to stop the reaction, centrifuge at 1000 rpm for 30 seconds and incubate for 15 minutes. read O.D.620, process data.
• (1) Using GraphPad Prism 5. • (2) % Inh=(Max signal−Compound signal)/(Max signal−Min signal)*100. • (3) Max signal was obtained from the positive control wells. • (4) Min signal was obtained from the negative control wells.

Chain of MAT2A (P31153 whole entry, species assumed): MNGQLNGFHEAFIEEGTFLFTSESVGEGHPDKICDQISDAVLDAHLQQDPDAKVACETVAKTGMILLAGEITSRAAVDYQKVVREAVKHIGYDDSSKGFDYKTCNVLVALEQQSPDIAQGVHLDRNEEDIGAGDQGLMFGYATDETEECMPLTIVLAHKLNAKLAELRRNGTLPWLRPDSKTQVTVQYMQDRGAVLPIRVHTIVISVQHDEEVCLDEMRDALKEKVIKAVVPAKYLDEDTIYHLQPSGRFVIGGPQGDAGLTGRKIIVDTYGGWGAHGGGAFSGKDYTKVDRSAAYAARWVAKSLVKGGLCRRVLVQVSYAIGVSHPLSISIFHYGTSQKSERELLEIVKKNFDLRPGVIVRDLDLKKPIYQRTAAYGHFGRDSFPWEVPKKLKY

| Structure (SMILES) | IC50 [nM] |
| --- | --- |
| C#CCNc1nc(=O)n(-c2nccnc2C)c2cc(C(F)(F)F)cc(OC)c12 [Example 48, 5-methoxy-1-(3-methylpyrazin-2-yl)-4-(prop-2-yn-1-ylamino)-7-(trifluoromethyl)quinazolin-2 (1H)-one] | < 50 |
| C#CCNc1nc(=O)n(-c2cccnc2C)c2cc(Cl)cc(OC)c12 [Example 22, 7-chloro-5-methoxy-1-(2-methylpyridin-3-yl)-4-(prop-2-yn-1-ylamino)quinazolin-2 (1H)-one] | < 50 |
| C#CCNc1nc(=O)n(-c2cnccn2)c2cc(C(F)(F)F)cc(OC)c12 [Example 54, 5-methoxy-4-(prop-2-yn-1-ylamino)-1-(pyrazin-2-yl)-7-(trifluoromethyl)quinazolin-2 (1H)-one] | < 50 |
| C#CC1(Nc2nc(=O)n(-c3cccnc3)c3cc(Cl)cc(OC)c23)CC1 [Example 66] | < 50 |
| C#CC1(Nc2nc(=O)n(-c3cccnn3)c3nc(C(F)(F)F)ccc23)CC1 [Example 70, 4-((1-ethynylcyclopropyl)amino)-1-(pyridazin-3-yl)-7-(trifluoromethyl)pyrido[2,3-d]pyrimidin-2 (1H)-one] | < 50 |
| C#CC1(Nc2nc(=O)n(-c3cnccn3)c3cc(Cl)cc(OC)c23)CC1 [Example 24, 7-chloro-4-((1-ethynylcyclopropyl)amino)-5-methoxy-1-(pyrazin-2-yl)quinazolin-2 (1H)-one] | < 50 |
| C#CCNc1nc(=O)n(-c2cccnc2C)c2cc(Br)cc(OC)c12 [Example 19, 7-bromo-5-methoxy-1-(2-methylpyridin-3-yl)-4-(prop-2-yn-1-ylamino)quinazolin-2 (1H)-one] | < 50 |
| C=CCNc1nc(=O)n(-c2cccnc2C)c2cc(Cl)cc(OC)c12 [Example 74] | < 50 |
| C#CCNc1nc(=O)n(-c2nccnc2C)c2cc(Cl)cc(OC)c12 [Example 23, 7-chloro-5-methoxy-1-(3-methylpyrazin-2-yl)-4-(prop-2-yn-1-ylamino)quinazolin-2 (1H)-one] | < 50 |
| C#CCNc1nc(=O)n(-c2cccnc2C)c2cc(C(F)(F)F)cc(OC)c12 [Example 36, 5-methoxy-1-(2-methylpyridin-3-yl)-4-(prop-2-yn-1-ylamino)-7-(trifluoromethyl)quinazolin-2 (1H)-one] | < 50 |
| C#CC1(Nc2nc(=O)n(-c3cccnc3C)c3cc(Cl)ccc23)CC1 [Example 16, 7-chloro-4-((1-ethynylcyclopropyl)amino)-1-(2-methylpyridin-3-yl)quinazolin-2 (1H)-one] | < 50 |
| C#CC1(Nc2nc(=O)n(-c3cccnc3C)c3cc(Cl)cc(OC)c23)CCC1 [Example 28] | < 50 |
| C#CC(C)Nc1nc(=O)n(-c2cccnc2)c2cc(Cl)cc(OC)c12 (centres unmarked) [Example 65] | < 50 |
| C#CCNc1nc(=O)n(-c2cccnc2C)c2cc(C(F)(F)F)cc(OC(F)F)c12 [Example 40, 5-(difluoromethoxy)-1-(2-methylpyridin-3-yl)-4-(prop-2-yn-1-ylamino)-7-(trifluoromethyl)quinazolin-2 (1l)-one] | < 50 |
| C#CC1(Nc2nc(=O)n(-c3cccnc3C)c3cc(C(F)(F)F)cc(OC)c23)CCC1 [Example 50] | < 50 |
| C=CC1(Nc2nc(=O)n(-c3cccnc3C)c3cc(Cl)cc(OC)c23)CC1 [Example 75, 7-chloro-5-methoxy-1-(2-methylpyridin-3-yl)-4-((1-vinylcyclopropyl)amino)quinazolin-2 (1H)-one] | < 50 |
| C#CC(C)Nc1nc(=O)n(-c2cccnc2C)c2cc(Cl)cc(OC)c12 (centres unmarked) [Example 26] | < 50 |
| C#CCNc1nc(=O)n(-c2cccnc2)c2cc(Cl)cc(OC)c12 [Example 20, 7-chloro-5-methoxy-4-(prop-2-yn-1-ylamino)-1-(pyridin-3-yl)quinazolin-2 (1H)-one] | < 50 |
| C#CC1CCN(c2nc(=O)n(-c3ccccc3Cl)c3cc(Cl)ccc23)CC1 [Example 13, 7-chloro-1-(2-chlorophenyl)-4-(4-ethynylpiperidin-1-yl)quinazolin-2 (1H)-one] | > 1000 |
| C#CCNc1nc(=O)n(-c2cccnc2C)c2cc(Cl)ccc12 [Example 15, 7-chloro-1-(2-methylpyridin-3-yl)-4-(prop-2-yn-1-ylamino)quinazolin-2 (1H1)-one] | < 50 |

Other lines, results leading:

| IC50 [nM] | Structure (SMILES) |
| --- | --- |
| < 50 | C#CCNc1nc(=O)n(-c2cnccn2)c2cc(C(F)(F)F)ccc12 [Example 53, 4-(prop-2-yn-1-ylamino)-1-(pyrazin-2-yl)-7-(trifluoromethyl)quinazolin-2 (1H)-one] |
| < 50 | C=CCNc1nc(=O)n(-c2cccnc2)c2cc(Cl)cc(OC)c12 [Example 73] |
| < 50 | C#CC1(Nc2nc(=O)n(-c3cccnc3)c3cc(C(F)(F)F)ccc23)CC1 [Example 67] |
| < 50 | C#CCNc1nc(=O)n(-c2cccnc2)c2nc(C(F)(F)F)ncc12 [Example 61, 4-(prop-2-yn-1-ylamino)-1-(pyridin-3-yl)-7-(trifluoromethyl)pyrimido[4,5-d]pyrimidin-2 (1H)-one] |
| < 50 | O=c1nc(NCC#CC2CC2)c2ccc(Cl)cc2n1-c1cccnc1 [Example 2, 7-chloro-4-((3-cyclopropylprop-2-yn-1-yl)amino)-1-(pyridin-3-yl)quinazolin-2 (1H)-one] |
| > 1000 | C#CC1(Nc2nc(=O)n(-c3cccnc3)c3cc(C(F)(F)F)cnc23)CC1 [Example 56, 4-((1-ethynylcyclopropyl)amino)-1-(pyridin-3-yl)-7-(trifluoromethyl)pyrido[3,2-d]pyrimidin-2 (1H)-one] |
| < 50 | C=CCNc1nc(=O)n(-c2cccnc2C)c2cc(C(F)(F)F)cc(OC)c12 [Example 77] |
| < 50 | C#CCNc1nc(=O)n(-c2cnccn2)c2cc(Cl)ccc12 [Example 17, 7-chloro-4-(prop-2-yn-1-ylamino)-1-(pyrazin-2-yl)quinazolin-2 (1H)-one] |
| < 50 | C=CCNc1nc(=O)n(-c2cccnc2)c2cc(C(F)(F)F)ccc12 [Example 76] |
| < 50 | C#CCNc1nc(=O)n(-c2cccnc2)c2cc(C(F)(F)F)cc(OCF)c12 [Example 38, 5-(fluoromethoxy)-4-(prop-2-yn-1-ylamino)-1-(pyridin-3-yl)-7-(trifluoromethyl)quinazolin-2 (1H)-one] |
| < 50 | C#CC1(Nc2nc(=O)n(-c3cccnc3)c3cc(Cl)ccc23)CC1 [Example 4] |
| < 50 | C#CCNc1nc(=O)n(-c2cccnn2)c2nc(C(F)(F)F)ccc12 [Example 63, 4-(prop-2-yn-1-ylamino)-1-(pyridazin-3-yl)-7-(trifluoromethyl)pyrido[2,3-d]pyrimidin-2 (1H)-one] |
| < 50 | C#CC1(Nc2nc(=O)n(-c3cccnc3)c3nc(C(F)(F)F)ccc23)CC1 [Example 68, 4-((1-ethynylcyclopropyl)amino)-1-(pyridin-3-yl)-7-(trifluoromethyl)pyrido[2,3-d]pyrimidin-2 (1H)-one] |
| < 50 | C#CC1(Nc2nc(=O)n(-c3cnccn3)c3cc(C(F)(F)F)ccc23)CC1 [Example 69, 4-((1-ethynylcyclopropyl)amino)-1-(pyrazin-2-yl)-7-(trifluoromethyl)quinazolin-2 (1H)-one] |
| < 50 | C#CCNc1nc(=O)n(-c2cccnc2)c2cc(C(F)(F)F)cc(OC)c12 [Example 34, 5-methoxy-4-(prop-2-yn-1-ylamino)-1-(pyridin-3-yl)-7-(trifluoromethyl)quinazolin-2 (1H)-one] |
